Source: patent publication US10233151B2, “Use of a novel 3-aryl-4-catechol-pyrrole-N-propanol compound and the derivatives thereof to treat cancer and diseases related to excessive angiogenesis” (Centre National de la Recherche Scientifique (CNRS), priority 2014, dated 2019)

How the values were obtained:
[1] = EPR at 77 K, disappearance of the O2°- signal; settings: KO2 2.5 mM in DMSO, dependent on concentration
Protocol: In order to follow the direct interaction of compound (1) with superoxide anion, solid potassium superoxide (KO2) was dissolved by sonication in DMSO (final concentration 2.5 mM), then mixed with compound (1) and immediately cooled by immersion in liquid nitrogen. EPR analysis at 77 K (liquid nitrogen) was carried out with a MiniScope MS 100 EPR spectrometer, operating at a frequency of 9.5 GHz (X-band) with the following parameters: magnetic field: 336.0±49.8 mT; sweep time: 20 s; sampling: 4096 points; modulation amplitude: 0.10 mT; modulation frequency: 100 kHz; gain: 900; microwave power: 6 mW.

[2] = tested on: U87 cells; assay: VEGF secretion by ELISA, U87 culture supernatant; assay type: cell-based, human; settings: U87, normoxic and hypoxic (2% O2) conditions, concentrations of 5 to 50, 24 hours
Protocol: At the tenth day of embryonic development, glioblastoma cells (U87, 5×10^6 in 20 μL) were deposited on the chorioallantoic membrane. Two days after the graft, compound (1) at a concentration of 50 μM in a volume of 20 μL was deposited on the surface of the tumor formed. This treatment was repeated every 24 hours for 5 days. The control group was treated with solvent. The test was carried out on 20 eggs bearing glioblastoma tumors for each group. Images of the tumors were taken at day 3 (24 hours after treatment), at day 5 (3 days after treatment) and at day 7 (5 days after treatment) of tumor development. […] In order to determine the antiangiogenic mechanism of compound (1), VEGF was assayed by the ELISA method (Invitrogen, Novex technology), from the culture supernatant of U87 and HCT-116 cells, under normoxic and hypoxic conditions.

[3] = tested on: HCT-116 cells; assay: Cell growth test (CellTiter-Blue), HCT-116; assay type: cell-based; settings: Homo sapiens, HCT-116, 72 h, HCT-116, normoxia, 72 hours; read-out: IC50 (50% decrease in cell growth)
Protocol: (§1) The biological activity of compound (1), as well as that of its structural analogues, was studied in vitro on 7 different cancer cell lines: • HCT-116 (colorectal cancer) • U87 (glioblastoma) • K562 (myeloid leukemia) and K562 R • MDA-MB 231 (mammary adenocarcinoma) • MCF-7 (mammary adenocarcinoma) • A549 (pulmonary alveolar adenocarcinoma)
The cells selected for this study were incubated at 37° C. in the presence of compound (1) added in the culture medium at various concentrations and at various times. The set of experiments carried out made it possible to determine the degree of cytotoxicity of the compound tested (IC50), its capacity to induce cell death by apoptosis, in close dependence on extracellular superoxide anion for its activation. […]

[4] = tested on: caspases 3 and 7 in U87 cells; assay: Caspase 3 and 7 activity (ApoONE test), U87; assay type: cell-based, human; settings: U87, normoxia, 24 hours, 1 μM to 50 μM
Protocol: In order to specify whether compound (1) leads to apoptotic cell death, the activity of caspases 3 and 7, marker enzymes of apoptosis, was measured using the ApoONE test (Promega) in HCT-116, U87 and HL60 cells treated in normoxia for 24 hours with compound (1) at concentrations varying from 1 μM to 50 μM.

[5] = tested on: HCT-116 cells; assay: Cellular superoxide anion signal, DHE probe, HPLC-fluorimetry; assay type: cell-based; settings: HCT-116, 50 μM for 3 hours, DHE 10 μM 20 minutes, normoxia
Protocol: The effect of compound (1) on superoxide anion was studied following the treatment of HCT-116 cells with 50 μM compound (1) for 3 hours and followed by incubation with the probe dihydroethidium (DHE) (10 μM) for 20 minutes. After removing the culture medium and washing with ice-cold DPBS, the cells were collected in 1 ml of cold DPBS. After centrifugation at 1000 g for 5 minutes, the pellet was taken up in 150 μl of PBS with Triton X100 (0.1%), shaken and centrifuged at 1000 g for 5 minutes. The supernatant was mixed with a 0.2 M solution of HClO4 in methanol, shaken and placed on ice for 2 hours. After centrifugation at 20000 g for 30 minutes, the supernatant is analyzed by HPLC coupled with fluorescence (λex=510 nm, λcm=595 nm). In the untreated cells (continuous line), the first peak at tR=5.16 minutes corresponds to the oxidized form “E+”, product of oxidation by peroxidases, and the second peak at tR =5.71 minutes to the oxidized form 2-OH E+, specific to the interaction with superoxide anion. In the treated cells, the first peak at tR=5.29 minutes corresponding to the oxidized form “E+” is increased, whereas the second peak at tR=5.71 minutes, corresponding to the oxidized form 2OH E+, specific to the interaction with superoxide anion, was suppressed. […] (FIG. 10).

[6] = tested on: MCF-7 cells; assay: Cell growth test (CellTiter-Blue), MCF-7; assay type: cell-based; settings: Homo sapiens, MCF7; MCF-7, normoxia, 72 hours; read-out: IC50 (50% decrease in cell growth)
Protocol: as §1
(§2) The cells selected for this study were incubated at 37° C. in the presence of compound (1) added in the culture medium at various concentrations and at various times. The set of experiments carried out made it possible to determine the degree of cytotoxicity of the compound tested (IC50), its capacity to induce cell death by apoptosis, in close dependence on extracellular superoxide anion for its activation.
(§3) The effect of compound (1) on the growth of HCT-116, U87, K562, K562R, MDA-MB 231, MCF-7 and A549 cells, cultured in normoxia, was evaluated using a cell growth test (CellTiter-Blue™ Cell Viability Assay, Promega).

[7] = tested on: K562 cells; assay: Cell growth test (CellTiter-Blue), K562; assay type: cell-based; settings: Homo sapiens; K562, normoxia, 72 hours; read-out: IC50 (50% decrease in cell growth)
Protocol: as §1, §2, §3

[8] = tested on: K562R cells; assay: Cell growth test (CellTiter-Blue), K562R; assay type: cell-based; settings: Homo sapiens, K-562R, normoxia, 72 hours, read-out: IC50 (50% decrease in cell growth)
Protocol: as §1, §2, §3

[9] = EPR competition with BMPO, superoxide anion from KO2 in DMSO (organic phase); settings: KO2 5 mM in DMSO, BMPO 25 mM, room temperature; read-out: IC50, inhibition of the formation of the BMPO superoxide adduct
Protocol: The reactivity of compound (1) with superoxide anion in the organic phase was studied by EPR at room temperature using a competition method with the superoxide trapping reagent BMPO (5-tent-butoxycarbonyl-5-methyl-1-pyrroline N-oxide) (FIG. 1A). The superoxide anion source is potassium salt (KO2) used at 5 mM in DMSO after ultrasound-assisted dissolution. The concentrations used for compound (1) are between 0.31 and 40 μM. The trapping reagent BMPO is used at a final concentration of 25 mM. These experiments were carried out with a MiniScope MS 100 EPR spectrometer (Magnettech GmbH, Germany), operating at a frequency of 9.5 GHz (X-band) with the following parameters: magnetic field: 336.0±9.9 mT; sweep time: 20 s; sampling: 4096 points; modulation amplitude: 0.10 mT; modulation frequency: 100 kHz; gain: 900; microwave power: 100 mW.

With `OCCCn1cc(-c2ccccc2)c(-c2ccc(O)c(O)c2)c1` [compound (1)] the “EPR signal of superoxide anion” value [1] was “decrease in the EPR signal of superoxide anion”, the VEGF secretion [2] was “does not modify VEGF secretion” and the IC50 [3] was 7.5 µM. For the same compound, the “activity of caspases 3 and 7” value [4] was “significant activation of both caspases”, the “2-OH E+ signal (DHE oxidized by superoxide anion)” value [5] was “inhibition of the 2OH E+ signal” and the “E+ signal (DHE oxidized by peroxidases or catalase)” value [5] was “increase in the E+ signal”. It also gave an IC50 [6] of 15 µM, an IC50 [7] of 232 µM and an IC50 [8] of 12.5 µM. It also gave an IC50 [9] of 2.5 µM.
